Laboratory results: paper PMC8765437, “GSK3640254 Is a Novel HIV-1 Maturation Inhibitor with an Optimized Virology Profile” (Antimicrobial Agents and Chemotherapy, 2022)
Read-outs that look alike come from different tables or passages of the source.

How the values were obtained:
[1] = tested on: RepRlucNL4-3GagP373S variants; experiment: Virus breakthrough in MT-2 cell culture in the presence of compound; type: cell-based, HIV-1; details: for Days to virus breakthrough, Expt 1 / Days to virus breakthrough, Expt 2: drug 80 nM
Procedure: The ability of virus to break through and grow in the presence of an inhibitory concentration of a compound in cell culture provides an indication of its resistance barrier. […] Experiments were performed in duplicate at a low or high MOI (0.005 and 0.05) and at a drug concentration of 80 nM with RepRlucP373S WT virus or SDM-containing virus with known Gag polymorphisms (Table 6).
Cultures were incubated at 37°C and 5% CO2 until ∼100% cytopathic effect (CPE) was observed. […] At each passage, 100 μL of culture supernatant was collected and stored at −20°C. When a culture reached 100% CPE, it was terminated, and supernatants were harvested for subsequent virus population sequencing.

[2] = tested on: HIV-2 strains; experiment: HIV-2 strains, reverse transcriptase activity in MT-2 cells; type: cell-based
Procedure: (§1) Virus yields were measured in dose-response experiments by either luciferase activity in human T-cells (CEM-NKR-CCR5-Luc), extracellular reverse transcriptase activity in MT-2 cells (T-tropic viruses), or extracellular p24 antigen in PM1 cells (M-tropic viruses).
Multiple-cycle assays using recombinant viruses or clinical isolates were used to assess MI antiviral activity as described previously ([10]). pNLRepRlucP373S (the P373S change is in the Gag gene and converts an outlier polymorphism in the NL4-3 gene to the prevalent amino acid in the population) plasmids containing SDMs in Gag or gag/pr regions from clinical isolates were transfected into HEK 293T cells, and the supernatant containing recombinant virus was harvested after 4 to 5 days. Virus was used to infect MT-2 cells in the presence of a 3-fold serially diluted compound at a final dimethyl sulfoxide (DMSO) concentration of 1%. The inocula of the reporter viruses were determined based on the luciferase activity detected on day 4 postinfection. The MOI (ratio of infectious virions to target cells) of reporter-free laboratory strains and clinical isolates was 0.005, as derived from a tissue culture infectious dose study. Clinical isolates or reporter-free viruses were examined in the reporter CEM-NKR-CCR5-Luc cells or PBMCs at MOIs ranging from 0.005 to 0.01. Each infection started with a drug-free preincubation of the cell-virus mixtures, performed at 37°C and 5% CO2 for either 1 h at 2 times the final cell density (reporter viruses) or 1 h (reporter-free laboratory strains) or 3 h (clinical isolates) using cell pellets in 0.5 mL of medium. […] Virus growth was determined on days 4 to 5 postinfection for reporter variants or days 5 to 11 for the other viruses. The reporter viruses were detected by a luciferase assay according to manufacturer protocols (Brite-Glo luciferase kit [Promega] for CEM-NKR-CCR5-Luc cells and Dual-Luciferase Reporter 1000 assay system [Promega] for the other cells), and luminescence was detected on a Wallac Trilux. The growth of clinical isolates in PBMCs was quantitated by reverse transcriptase activity in a 96-well scintillation proximity assay (SPA). […] Luminescence was detected on a Wallac Trilux programmed for tritium counting with SPA beads in opaque plates. The growth of the reporter-free laboratory M-tropic strains and clinical isolates was monitored by a p24 enzyme-linked immunosorbent assay (ELISA; PerkinElmer Life Sciences, Waltham, MA) performed on culture supernatants.
(§2) Maximal percent inhibition values were calculated as MPI = 100 – (mean signals at the 2 highest concentrations of compound/mean signal of 2 no-drug control wells) × 100.

[3] = tested on: HIV-1 laboratory strains; experiment: Laboratory strains, reverse transcriptase activity in MT-2 cells; type: cell-based
Procedure: as §1
(§3) Multiple-cycle assays using recombinant viruses or clinical isolates were used to assess MI antiviral activity as described previously ([10]). pNLRepRlucP373S (the P373S change is in the Gag gene and converts an outlier polymorphism in the NL4-3 gene to the prevalent amino acid in the population) plasmids containing SDMs in Gag or gag/pr regions from clinical isolates were transfected into HEK 293T cells, and the supernatant containing recombinant virus was harvested after 4 to 5 days. Virus was used to infect MT-2 cells in the presence of a 3-fold serially diluted compound at a final dimethyl sulfoxide (DMSO) concentration of 1%. The inocula of the reporter viruses were determined based on the luciferase activity detected on day 4 postinfection. The MOI (ratio of infectious virions to target cells) of reporter-free laboratory strains and clinical isolates was 0.005, as derived from a tissue culture infectious dose study. Clinical isolates or reporter-free viruses were examined in the reporter CEM-NKR-CCR5-Luc cells or PBMCs at MOIs ranging from 0.005 to 0.01. Each infection started with a drug-free preincubation of the cell-virus mixtures, performed at 37°C and 5% CO2 for either 1 h at 2 times the final cell density (reporter viruses) or 1 h (reporter-free laboratory strains) or 3 h (clinical isolates) using cell pellets in 0.5 mL of medium. After preincubation, cell-virus mixtures were added to compound-containing 96-well plates for a final cell density of either 10,000 (MT-2 cells for reporter viruses), 20,000 (MT-2 and PM1 cells for reporter-free laboratory strains), 200,000 (PBMCs for clinical isolates), or 500,000 (CEM-NKR-CCR5-Luc for reporter-free laboratory strains) cells per well. The CEM-NKR-CCR5-Luc cell assay was performed in the presence of Polybrene (10 μg/mL). Virus growth was determined on days 4 to 5 postinfection for reporter variants or days 5 to 11 for the other viruses. The reporter viruses were detected by a luciferase assay according to manufacturer protocols (Brite-Glo luciferase kit [Promega] for CEM-NKR-CCR5-Luc cells and Dual-Luciferase Reporter 1000 assay system [Promega] for the other cells), and luminescence was detected on a Wallac Trilux. The growth of clinical isolates in PBMCs was quantitated by reverse transcriptase activity in a 96-well scintillation proximity assay (SPA). Twenty microliters of culture supernatants was mixed with 40 μL of reaction cocktail (62.5 mM Tris-HCl [pH 7.8], 100 mM KCl, 0.0625% NP-40, 2.5 mM dithiothreitol [DTT], 6.25 mM MgCl2, 1 mM EGTA, 6.25 μg/mL of poly rA, 2.5 μg/mL of streptavidin SPA beads prebound with biotinylated-dT12-18, and 1 μCi of [^3H]TTP). Mixtures were incubated at 37°C for ∼3 h and quenched with 100 μl of 0.25 M EDTA per well. Luminescence was detected on a Wallac Trilux programmed for tritium counting with SPA beads in opaque plates. The growth of the reporter-free laboratory M-tropic strains and clinical isolates was monitored by a p24 enzyme-linked immunosorbent assay (ELISA; PerkinElmer Life Sciences, Waltham, MA) performed on culture supernatants.
as §2

[4] = tested on: HIV-1 clinical isolates; experiment: Inhibition of clinical isolates in PBMCs; type: cell-based; details: Human immunodeficiency virus 1, PBMC
Procedure: Human peripheral blood mononuclear cells (PBMCs) were infected with isolates, and virus yields were measured by determining extracellular p24 protein levels (Table 4). […] These isolates were also examined in the NLRepRlucP373S virus by replacement of the gag/pr genes with those from these clinical isolates.
Peripheral blood mononuclear cells (BioReclamation, Westbury, NY) were cultured at 37°C and 5% CO2 in RPMI 1640 medium with 20% fetal bovine serum (Gibco Laboratories), 100 units/mL of penicillin G, 100 units/mL of streptomycin (Gibco Laboratories), and 1 ng/mL of recombinant human interleukin-2 (Invitrogen, Carlsbad, CA). Peripheral blood mononuclear cells were stimulated with 2 μg/mL of phytohemagglutinin (Sigma-Aldrich, St. Louis, MO) for 2 days before infection with HIV-1 clinical isolates.
as §3

`C=C(C)[C@@H]1CC[C@]2(NCCN3CCS(=O)(=O)CC3)CC[C@]3(C)[C@H](CC[C@@H]4[C@@]5(C)CC=C(c6ccc(C(=O)O)cc6)C(C)(C)[C@@H]5CC[C@]43C)[C@@H]12` [GSK’795, reference compound] was tested, and the “Days to virus breakthrough, Expt 1” value ([1]; High MOI (0.05), V362I) was 7 days, the “Days to virus breakthrough, Expt 2” value ([1]; High MOI (0.05), V362I) was 7 days and the “Days to virus breakthrough, Expt 1” value ([1]; High MOI (0.05), V370A) was 11 days. For the same molecule, the “Days to virus breakthrough, Expt 2” value ([1]; High MOI (0.05), V370A) was 11 days, the “Days to virus breakthrough, Expt 1” value ([1]; High MOI (0.05), V370M) was 7 days and the “Days to virus breakthrough, Expt 2” value ([1]; High MOI (0.05), V370M) was 7 days. The “Days to virus breakthrough, Expt 1” value ([1]; High MOI (0.05), Wild type) was 11 days, the “Days to virus breakthrough, Expt 2” value ([1]; High MOI (0.05), Wild type) was 14 days and the “Days to virus breakthrough, Expt 1” value ([1]; Low MOI (0.005), V362I) was 7 days. For the same molecule, the “Days to virus breakthrough, Expt 2” value ([1]; Low MOI (0.005), V362I) was 11 days, the “Days to virus breakthrough, Expt 1” value ([1]; Low MOI (0.005), V370A) was 11 days and the “Days to virus breakthrough, Expt 2” value ([1]; Low MOI (0.005), V370A) was 18 days. For the same molecule, the “Days to virus breakthrough, Expt 1” value ([1]; Low MOI (0.005), V370M) was 7 days, the “Days to virus breakthrough, Expt 2” value ([1]; Low MOI (0.005), V370M) was 11 days and the “Days to virus breakthrough, Expt 1” value ([1]; Low MOI (0.005), Wild type) was over 46 days. The “Days to virus breakthrough, Expt 2” value ([1]; Low MOI (0.005), Wild type) was 14 days, the samples exhibiting breakthrough ([1]; low and high MOIs, 80 nM, over the 46-day experiment) was 15 of 16 and the EC50 ([2]; Human immunodeficiency virus 2, MT2, HIV-2 287) was 751 nM. For the same molecule, the EC50 ([2]; Human immunodeficiency virus 2, MT2, HIV-2 ROD, second value in cell) was 17 nM, the EC50 ([3]; Human immunodeficiency virus 1, HXB2, MT2, HXB2, footnote b: RT activity in MT-2 cells, read-out: GSK’795 EC50 ± SD) was 9.3 ± 3.9 nM and the EC50 ([3]; Human immunodeficiency virus 1, IIIB, MT2, IIIB, footnote b: RT activity in MT-2 cells, read-out: GSK’795 EC50 ± SD) was 2.5 ± 0.8 nM. For the same molecule, the EC50 ([3]; Human immunodeficiency virus 1, MT2, LAI, footnote b: RT activity in MT-2 cells, read-out: GSK’795 EC50 ± SD) was 2.4 ± 0.8 nM, the EC50 ([3]; Human immunodeficiency virus 1, MT2, MN, footnote b: RT activity in MT-2 cells, read-out: GSK’795 EC50 ± SD) was 1 nM and the EC50 ([3]; Human immunodeficiency virus 1, MT2, RF, head footnote b: RT activity in MT-2 cells unless otherwise noted, read-out: GSK’795 EC50 ± SD) was 6.9 ± 2.8 nM. It also gave an EC50 ([3]; Human immunodeficiency virus 1, NL43, MT2, NL4-3, first value in cell, footnote b: RT activity in MT-2 cells, read-out: GSK’795 EC50 ± SD) of 3.9 ± 2.2 nM, an EC50 ([3]; Human immunodeficiency virus 1, NL43, MT2, NL4-3, second value in cell, read-out: EC50 (converted)) of 19 nM and an EC50 ([4]; read-out: Mean EC50, subtype A 92UG037) of 2 nM. For the same molecule, the EC50 ([4]; read-out: Mean EC50, subtype A 93RW029) was 6 nM, the EC50 ([4]; read-out: Mean EC50, subtype A 93RW034) was 2 nM and the EC50 ([4]; read-out: Mean EC50, subtype AE 93TH023) was 533 nM. The EC50 ([4]; read-out: Mean EC50, subtype AE 93TH053) was 18 nM, the EC50 ([4]; read-out: Mean EC50, subtype AE CMU010) was 35 nM and the EC50 ([4]; read-out: Mean EC50, subtype B 92BR003) was 4 nM. The EC50 ([4]; read-out: Mean EC50, subtype B 92BR018) was 145 nM, the EC50 ([4]; read-out: Mean EC50, subtype B 93BR009) was 2 nM and the EC50 ([4]; read-out: Mean EC50, subtype B 93BR013) was 9 nM. For the same molecule, the EC50 ([4]; read-out: Mean EC50, subtype B 93BR017) was 10 nM, the EC50 ([4]; read-out: Mean EC50, subtype C 93MW960) was 1580 nM and the EC50 ([4]; read-out: Mean EC50, subtype C 97ZA012) was 4 nM. The EC50 ([4]; read-out: Mean EC50, subtype C 98BR004) was 1 nM, the EC50 ([4]; read-out: Mean EC50, subtype C 10215-6) was 13 nM and the EC50 ([4]; read-out: Mean EC50, subtype C 20706-3) was 4 nM. It also gave an EC50 ([4]; read-out: Mean EC50, subtype C MJ4) of 7 nM and an EC50 ([4]; read-out: mean EC50 toward clinical isolates, panel of HIV-1 clinical isolates, subtypes A, B, C, CRF01_AE) of 138 nM.
